How the values were obtained:
[1] = test system: N1S1 liver carcinoma cells; test: N1S1 tumor volume by MRI in rats treated with TTFields and/or sorafenib; type: in vivo, Sprague Dawley rats
Protocol: Tumor volume was determined by MRI. […] In this experiment, the volume of the tumor was measured using MRI on day 6 (one day before treatment start) and day 14 (one day after the end of treatment); and each data point in FIG. 1A represents the volume of the tumor on day 14 divided by the volume of the tumor on day 6. Thus, numbers greater than 1 represent growth in the tumor volume, and numbers smaller than 1 represent a tumor that has shrunk between day 6 and day 14. In this figure, “*” represents p<0.1, “**” represents p<0.01, and “****” represents p<0.0001. […] FIG. 1B represents the volume of the tumor.
(§1) Male SD rats, 8-weeks of age (Envigo Ltd, Israel), were anesthetized by I.P. injection of Ketamine (75 mg/kg) and Xylazine (10 mg/kg)(FIG. 2). After loss of postural reflexes, the fur was removed from the upper abdominal area using a trimmer. The left lobe of the liver was surgically exposed and 10 μl of cell suspension containing 50,000 N1-S1 hepatocellular carcinoma cells in equal volumes of serum free medium and Matrigel (CORNING, Bedford, MA) were injected directly into the left lobe using a syringe with a 31-gauge needle. The peritoneum and abdominal muscles incisions were closed using surgical sutures and the skin were close by clips. The rats were allowed to recover for 6 days.
(§2) On day 6 all animals underwent a first MRI scan and were randomly divided into the following treatment groups:
(§3) Group I—rats were treated with sham heating electrodes and vehicle injection.
(§4) Group II—rats were treated with 150 kHz TTFields and vehicle injection.
Group III—rats were treated with 10 mg/kg/day Sorafenib.
Group IV—rats were treated with 150 kHz TTFields and 10 mg/kg/day Sorafenib.
On day 7, electrodes (TTFields or sham heating) were placed on the animals. The animals were treated for 6 days with TTFields or sham heat. […] Tumor volume were determined based on MRI scans on days […] after tumor implantation. […] Tumor volume was measured by manual segmentation of the tumor using ITK-SNAP version 3.6.0-rc1 free software. […]

N1S1 tumors = test: Fibrosis evaluation (score and Masson Trichrome morphometry) of treated N1S1 tumors; type: in vivo, SD rats
Protocol: as §1, §2, §3, §4
Group III—rats were treated with 10 mg/kg/day Sorafenib. […]
On day 7, electrodes (TTFields or sham heating) were placed on the animals. […] Tumor volume were determined based on MRI scans on days […] after tumor implantation. […] Tumor volume was measured by manual segmentation of the tumor using ITK-SNAP version 3.6.0-rc1 free software. […]
Tumors were harvested for histological evaluation of the grade of fibrosis using a semi-quantitative evaluation scale. […] Masson Trichrome stained sections were analyzed for fibrosis, using a scoring grade scale and digital morphometry.
H&E stained sections were examined by one pathologist and scored by a semi-quantitative scoring system for the presence of pathological changes (FIGS. 3 and 3A), as follows: • Grade 0: no signs of fibrosis • Grade 1: very mild signs of fibrosis • Grade 2: mild signs of fibrosis • Grade 3: moderate signs of fibrosis • Grade 4: High grade of fibrosis • Grade 5: Very high grade of fibrosis […]
The percent of the stained areas (FIG. 3: top-right) out of the whole tissue (FIG. 3: top-right+bottom-left) was calculated as shown in FIG. 4.

CNC(=O)c1cc(Oc2ccc(NC(=O)Nc3ccc(Cl)c(C(F)(F)F)c3)cc2)ccn1 [sorafenib]
tumor volume ([1]; combination of TTFields (2.86 V/cm) and sorafenib (10 mg/kg/day)): synergistic decrease | decrease in tumor volume ([1]; combination of TTFields and sorafenib, N1S1 tumors, FIG. 1): ≥ 10 fold | fold increase in tumor volume (day 14 / day 6) ([1]; combination of TTFields at 150 kHz and sorafenib 10 mg/kg/day IP, MRI): significantly reduced | fibrosis score (N1S1 tumors; TTFields in combination with sorafenib, relative to TTFields alone, evaluated by a pathologist): significantly reduced | reduction in fibrotic area compared to control group (N1S1 tumors; combined treatment of 150 kHz TTFields and sorafenib 10 mg/kg/day): 20.8% | decrease in fibrotic area relative to control (N1S1 tumors; sorafenib alone, 10 mg/kg/day, morphometry of fibrosis percent): 30.4%

Reference: patent US12343336B2, “Increasing cancer cells' sensitivity to tumor treating fields (TTFields) by inhibiting IL11 activity” (Novocure GmbH, priority 2019, dated 2025)
